The text below walks through data of patent US20220062391A1, “ENHANCING EPITHELIAL OR ENDOTHELIAL BARRIER FUNCTION” (UNIVERSITY OF ROCHESTER, priority 2019, published 2022).

For assay [1], the system named is ATI cells. As to the kind of experiment: TEER of alveolar epithelial monolayers on transwell plates. The assay is classed as cell-based, rat. How it is done:
Primary rat alveolar epithelial type II cells were isolated using an IgG-panning approach as described by Dobbs (74). Briefly, lungs from Sprague Dawley rats (200-250 g) were surgically removed and perfused, lavaged, and treated with 1 mg/ml of elastase (WORTHINGTON BIOCHEMICAL, Lakewood, N.J.) to release the epithelial cells. Next, lung lobes were separated, cut, minced, filtered and spin down at 1500 rpm for 15 minutes. The cells were resuspended with DMEM without FBS and transferred into two IgG plates. After incubation at 37° C. for one hour, non-adhered cells (predominately ATII cells) were transferred to a new tube and centrifuged at 1500 rpm for 15 minutes. The cells were resuspended in DMEM containing 10% FBS and plated on fibronectin coated plates. To coat the plates with fibronectin, 20 μg/ml of fibronectin from bovine plasma (F1141, SIGMA-ALDRICH, St. Louis, Mo.) was added to 100 mm culture plates (using 3 ml) or the upper chamber of the transwell plates (using 400 μl). Plates were left at 37° C. for 3 hours. Residual solution was removed, and plates were dried in a tissue culture hood for at least 30 minutes before cells were added. 16HBE14o-human bronchial epithelial cells were cultured in Dulbecco's modified Eagle's medium as previously reported (18).
Prior to the assay, cells cultured on 12-well transwell plates (12 mm transwell with 0.4 μm pore polyester membrane insert; CORNING, Corning, N.Y.) were moved to the tissue culture hood for 15 minutes to allow the medium equilibrate to room temperature. TEER was measured using an epithelial voltmeter (EVOM2; WORLD PRECISION INSTRUMENTS, Sarasota, Fla.). Three readings were recorded and averaged for each well. To calculate TEER, the resistance of the fibronectin-coated insert without cells (blank resistance) was subtracted from the measured resistance, then multiplied by 1.12 cm^2 to account for the surface area of the insert.

Assay [2] concerns ATI cells. As to the kind of experiment: Western blot of tight junction proteins in transfected ATI cells. Conditions: 24 hours. The format is cell-based, rat. How it is done:
(§1) Primary rat alveolar epithelial type II cells were isolated using an IgG-panning approach as described by Dobbs (74). Briefly, lungs from Sprague Dawley rats (200-250 g) were surgically removed and perfused, lavaged, and treated with 1 mg/ml of elastase (WORTHINGTON BIOCHEMICAL, Lakewood, N.J.) to release the epithelial cells. Next, lung lobes were separated, cut, minced, filtered and spin down at 1500 rpm for 15 minutes. The cells were resuspended with DMEM without FBS and transferred into two IgG plates. After incubation at 37° C. for one hour, non-adhered cells (predominately ATII cells) were transferred to a new tube and centrifuged at 1500 rpm for 15 minutes. The cells were resuspended in DMEM containing 10% FBS and plated on fibronectin coated plates. […]
(§2) Cells were lysed with reporter lysis buffer (lx, PROMEGA), supplemented with protease inhibitor (COMPLETE, Mini, EDTA-free tablets; ROCHE, Basel, Switzerland) and phosphatase inhibitor (PHOSSTOP Phosphatase Inhibitor Cocktail; ROCHE, Basel, Switzerland). […] After incubation with secondary antibody and development, bands were detected on film (BIOMAX MR film; […] HEALTH, Rochester, N.Y.) or using the CHEMIDOC IMAGING SYSTEM (BIO-RAD, Hercules, Calif.) and quantified using the IMAGE STUDIO™ LITE software (LI-COR, Lincoln, Nebr.) or the IMAGE LAB SOFTWARE (BIO-RAD, Hercules, Calif.).

Another assay relates to 16HBE14o-cells. The experiment in a line: Doxycycline-inducible β1 expression, immunoblot in 16HBE14o- cells. Conditions: 24 hours post transfection. The format is cell-based, human. As to the method: as §1, with “minutes.” for “minutes. The cells were resuspended in DMEM containing 10% FBS and plated on fibronectin coated plates.”
as §2
Given that the β1 subunit increased protein expressions of tight junctions in ATI cells, their localization in these cells was analyzed. […]
In general terms: A western blot detects proteins with antibodies after separation by electrophoresis.

Another assay deals with mouse lungs. The experiment in a line: Alveolar fluid clearance (AFC) in live mice. The format is in vivo. Conditions: two days after gene transfer, or 10^−8 mol/L in the instillation solution. As to the method:
(§3) Male C57BL/6 mice (9-11 weeks) were anesthetized with isoflurane and 100 μg of each individual plasmid were delivered in 50 μl of 10 mM Tris-HCl (pH 8.0), 1 mM EDTA, and 140 mM NaCl, to mouse lungs by aspiration (when both β1 and MRCKα were delivered, 100 μg of each were administered prior to electroporation) as previously described in Lin, X., et al., Gene Ther 23: 489-99. Eight, 10 msec square wave pulses at a field strength of 200 V/cm were immediately applied using cutaneous electrophysiology electrodes (MEDTRONIC, Redmond, Wash.) placed on the mouse chest with an ECM830 electroporator (BTX, HARVARD […], Holliston, Mass.). […]
The method used in this study was performed in live mice as previously described in Lin, X., et al., Gene Ther 23: 489-99 and Mutlu, G. M., et al., Circ Res 94: 1091-100. […] Protein concentration in the aspirate was assessed using a Bradford assay (BIO-RAD LABORATORIES, Hercules, Calif.) and AFC was calculated using following equation: AFC=1−(C0/C30), where C0, is the protein concentration of the instillate before instillation, and C30 is the protein concentration of the sample obtained at the end of 30 minutes of mechanical ventilation. Clearance is expressed as a percentage of total instilled volume cleared/30 minutes. […]

Assay [3] deals with ATI cells. As to the kind of experiment: Permeability to fluorescent dextran tracers. Conditions: 1 μg/ml. The format is cell-based, rat. How it is done: Permeability to fluorescent tracers was measured using a modified protocol previous described (76). […] Five hundred microliters of freshly prepared solution containing 100 μg/mL of 40 kD FITC-dextran and 100 μg/mL of 31(D Texas Red-dextran were added to the apical compartment. One thousand microliters of P buffer was added to the bottom chamber. After 2 hours incubation at 37° C., 100 μl of the basal medium was collected and the fluorescence of the transported dextran was measured with a SPECTRAMAX M5 multi-mode microplate reader (MOLECULAR DEVICES, San Jose, Calif.). The excitation wavelength and emission wavelength are 492 nm and 520 nm for FITC and 596 nm and 615 nm for Texas-red, respectively. The quantity of tracer was calculated by comparison with a standard curve. A permeability coefficient was determined using the following equation (77): Pc (cm/min)=V/(A×Co)×(C/T) where V is volume in the lower compartment (1 ml), A is the surface area of the membrane (1.12 cm^2 for the 12-well transwell used here), Co is the dextran concentration in the upper compartment at time 0 (0.1 mg/ml), and C is the dextran concentration in the lower compartment at time T of sampling (2 hours).

Assay [4] has as its system LPS-injured lungs. As to the kind of experiment: Western blot of occludin and ZO-1 in mouse lungs. The format is in vivo. Conditions: LPS 5 mg/kg. How it is done:
as §3, with “Mass.). All LPS-challenged mice received 5 mg/kg of LPS (Escherichia coli 055:B5, 15,000,000 endotoxin units/mg protein; SIGMA-ALDRICH, St. Louis, Mo.) in 50 μl of phosphate-buffered saline (PBS) by aspiration, one day before gene transfer (n=5-11 mice/group).” for “Mass.).”
Western blots were performed as previously described in Lin, X., et al. Am J Respir Crit Care Med 183: 1689-97. […] After incubation with secondary antibody and development, bands were detected using the CHEMIDOC Imaging System (BIO-RAD, Hercules, Calif.) and quantified using the IMAGE STUDIO™ LITE software (LI-COR, Lincoln, Nebr.) or the IMAGE LAB software (BIO-RAD, Hercules, Calif.).

Assay [5] concerns LPS-injured lungs. As to the kind of experiment: Pulmonary permeability by Evan's blue dye leakage. The format is in vivo, mouse. The settings on record: LPS 5 mg/kg intratracheal, compared with naïve mice. How it is done:
as §3, with “Mass.). All LPS-challenged mice received 5 mg/kg of LPS (Escherichia coli 055:B5, 15,000,000 endotoxin units/mg protein; SIGMA-ALDRICH, St. Louis, Mo.) in 50 μl of phosphate-buffered saline (PBS) by aspiration, one day before gene transfer (n=5-11 mice/group).” for “Mass.).”
Pulmonary permeability was measured by Evan's blue dye (EBD) leakage from blood into airways (Baluk, P., et al., Br J Pharmacol 126: 522-8 and Mammoto, A., et al., Nat Commun 4: 1759). […] 24 hrs later, EBD was extracted in formamide (FISHER […]) at 37° C. for 24 hrs and quantified by measuring spectrophotometrically at 620 nm and 740 nm, correcting by using formula E620 (EBD)=E620−(1.426×E740+0.030) (Standiford, T. J., et al., J Immunol 155: 1515-24).

The target in assay [6] is MRCKα of primary rat alveolar type I (ATI) cells (rat) (UniProt O54874). As to the kind of experiment: cell-based or functional assay.
Chain of UniProt O54874 (O54874 whole entry): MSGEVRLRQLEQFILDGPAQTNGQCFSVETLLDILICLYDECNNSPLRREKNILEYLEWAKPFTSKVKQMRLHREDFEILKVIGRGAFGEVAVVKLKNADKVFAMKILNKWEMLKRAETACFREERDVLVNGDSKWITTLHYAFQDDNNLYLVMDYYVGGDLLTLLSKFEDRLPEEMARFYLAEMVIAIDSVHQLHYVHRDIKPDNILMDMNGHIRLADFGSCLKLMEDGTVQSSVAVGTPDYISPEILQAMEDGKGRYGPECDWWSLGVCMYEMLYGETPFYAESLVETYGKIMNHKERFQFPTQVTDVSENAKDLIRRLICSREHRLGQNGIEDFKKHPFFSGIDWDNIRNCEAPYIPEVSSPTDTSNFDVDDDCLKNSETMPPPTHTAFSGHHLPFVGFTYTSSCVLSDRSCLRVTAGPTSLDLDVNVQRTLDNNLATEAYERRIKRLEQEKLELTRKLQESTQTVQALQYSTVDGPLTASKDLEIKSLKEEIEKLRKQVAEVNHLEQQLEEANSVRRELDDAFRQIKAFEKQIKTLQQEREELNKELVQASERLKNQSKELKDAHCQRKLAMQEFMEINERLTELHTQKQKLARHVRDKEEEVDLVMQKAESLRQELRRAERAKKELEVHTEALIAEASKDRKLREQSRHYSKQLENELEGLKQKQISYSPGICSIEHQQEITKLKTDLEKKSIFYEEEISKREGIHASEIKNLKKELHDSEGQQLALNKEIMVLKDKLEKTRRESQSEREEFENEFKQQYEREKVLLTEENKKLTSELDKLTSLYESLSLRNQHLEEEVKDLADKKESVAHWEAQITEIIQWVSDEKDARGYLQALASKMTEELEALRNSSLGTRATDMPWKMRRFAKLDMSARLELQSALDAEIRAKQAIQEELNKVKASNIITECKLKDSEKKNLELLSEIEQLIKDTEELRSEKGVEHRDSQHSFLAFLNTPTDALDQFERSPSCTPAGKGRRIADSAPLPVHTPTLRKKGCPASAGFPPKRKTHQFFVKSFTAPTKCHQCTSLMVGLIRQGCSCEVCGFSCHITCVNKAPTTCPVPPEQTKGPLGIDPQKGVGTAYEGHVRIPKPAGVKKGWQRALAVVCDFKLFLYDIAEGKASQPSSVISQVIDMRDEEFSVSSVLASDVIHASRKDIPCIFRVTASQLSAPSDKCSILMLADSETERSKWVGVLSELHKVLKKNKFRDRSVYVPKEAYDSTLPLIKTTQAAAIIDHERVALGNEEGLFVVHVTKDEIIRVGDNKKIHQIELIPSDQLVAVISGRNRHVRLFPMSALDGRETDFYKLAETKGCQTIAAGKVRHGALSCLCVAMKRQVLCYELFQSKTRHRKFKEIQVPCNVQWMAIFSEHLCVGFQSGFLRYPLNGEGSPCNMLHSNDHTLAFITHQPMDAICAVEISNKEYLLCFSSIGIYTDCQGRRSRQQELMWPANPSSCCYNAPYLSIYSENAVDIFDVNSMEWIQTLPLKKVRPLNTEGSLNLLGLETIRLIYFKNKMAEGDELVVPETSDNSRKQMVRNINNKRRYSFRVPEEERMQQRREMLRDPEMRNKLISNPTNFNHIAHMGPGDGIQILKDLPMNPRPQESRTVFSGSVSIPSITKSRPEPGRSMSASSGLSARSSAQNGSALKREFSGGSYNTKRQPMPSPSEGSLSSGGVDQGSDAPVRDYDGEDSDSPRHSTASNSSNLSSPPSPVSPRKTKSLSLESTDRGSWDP

As for `O=C(Nc1cn[nH]c1-c1ccccn1)c1nn(C2CCNCC2)cc1Cl` [BDP5290], in the assay on ATI cells [1] (2 μM inhibitor), the “baseline TEER” value is “decreased” and the “β1 subunit-induced increase of barrier integrity (TEER) under MRCKα inhibition” value was “prevented β1 subunit-induced increase of barrier integrity”.
`Cc1ccc2c(c1)C(=O)C1(O)CCN(c3ccccc3)C1=N2` (stereo not drawn) [blebbistatin]: in the assay with ATI cells [2] (ATI cells transfected with rat β1, blebbistatin 1, 10 or 100 uM), the “β1-induced upregulation of occludin in presence of blebbistatin” value is “significantly suppress the upregulation of occludin”. Further, the “β1-induced increase in TEER under myosin II inhibition” value in the assay on ATI cells [1] (pretreatment 20 μM) was “prevented the increase in TEER”.
Consider `C[C@H]1c2cccc(O)c2C(=O)C2=C(O)[C@]3(O)C(=O)C(C(N)=O)=C(O)[C@@H](N(C)C)[C@@H]3[C@@H](O)[C@@H]21` [doxycycline], for which, in the assay with 16HBE14o-cells, the “doxycycline concentration of maximum induction of β1 subunit” value came out at 1000 ng/mL.
Consider `C[C@@H]1O[C@@H](O[C@H]2C[C@@H](O)[C@]3(CO)[C@H]4[C@H](O)C[C@]5(C)[C@@H](C6=CC(=O)OC6)CC[C@]5(O)[C@@H]4CC[C@]3(O)C2)[C@H](O)[C@H](O)[C@H]1O` [ouabain], for which the “β1-induced upregulation of occludin in presence of ouabain” value with ATI cells [2] (ATI cells transfected with rat β1, ouabain 10 nM, 100 nM or 1000 nM) is “did not block the upregulation of occludin”.
Turning to `CCC(NC(C)C)C(O)c1ccc(O)c2[nH]c(=O)ccc12` (stereo not drawn) [procaterol, Procaterol], the “increase of AFC” value with mouse lungs is 145%.
lipopolysaccharide: in the assay on ATI cells [1] (1 μg/ml, 24 hours), the TEER after lipopolysaccharide entry is listed as “decreased TEER”. Besides, the “permeability to 4 kD Dextran after lipopolysaccharide” value with ATI cells [3] is recorded as “increased permeability”. In the assay with LPS-injured lungs [4], the “levels of ZO-1 and occludin in lungs after LPS injury” value is listed as “reduced levels”. Besides, in the assay on LPS-injured lungs [5], the “increase of pulmonary leakage in response to LPS” value is listed as “three- to four-fold”.
Turning to “rat Na+, K+-ATPase β1 subunit (from UniProt P07340 1-304)”, the phosphorylation of myosin light chain 2 (MLC2) at Ser19, western blot after β1 subunit overexpression in ATI cells in assay [6] was determined as 2 fold.
